The source made the active and inactive calls. The calls are words filed in the database; no cut-off is given here.
Legend:
Cannabinoid receptor 1 [1] = target: Cannabinoid receptor 1 (Homo sapiens, UniProt P21554); test: Displacement of [3H]-CP-55940 from recombinant human CB1 receptor overexpressed in HEK293 cell membranes after 90 mins
Homo sapiens = organism: Homo sapiens; test: Selectivity index, ratio of Ki for recombinant human CB1 receptor to Ki for recombinant human CB2 receptor
Cannabinoid receptor 2 [2] = target: T1, Cannabinoid receptor 2 (Homo sapiens, UniProt P34972); test: Displacement of [3H]-CP-55940 from recombinant human CB2 receptor overexpressed in HEK293 cell membranes after 90 mins
Cannabinoid receptor 2 [3] = target: T1, Cannabinoid receptor 2; test: Agonist activity at human CB2 receptor transfected in CHO cell membranes after 90 mins by [35S]-GTPgammaS assay; format: functional
LNCaP [4] = test: Cytotoxicity against human LNCAP cells expressing CB2 receptor assessed as decrease in cell viability after 72 hrs by neutral red uptake and accumulation assay
LNCaP [5] = test: Cytotoxicity against human LNCAP cells expressing CB2 receptor assessed as decrease in cell viability at 2 uM after 72 hrs by neutral red uptake and accumulation assay in presence of CB2 receptor antagonist MC21 relative to control; format: functional, cell-based
[6] = target: Cannabinoid receptor 1 (Rattus norvegicus) (UniProt P20272); test: Modulation of CB1 receptor-mediated G protein activity in rat cerebellar membranes at < 10 uM after 90 mins by [35S]-GTPgammaS assay; format: functional, cell membranes; conditions: Cerebellum, Membrane
PBMC [7] = test: Immunomodulatory activity in human myelin basic protein activated PBMC isolated from healthy human assessed as inhibition of CD54 expression after 6 days by flow cytometric analysis; format: functional, cell-based
PBMC [8] = test: Immunomodulatory activity in human myelin basic protein activated PBMC isolated from healthy human assessed as inhibition of CD69 expression after 6 days by flow cytometric analysis; format: functional, cell-based
PBMC [9] = test: Immunomodulatory activity in human myelin basic protein activated PBMC isolated from healthy human assessed as inhibition of CD49d expression after 6 days by flow cytometric analysis; format: functional, cell-based
CHO = test: Effect on mock-transfected CHO cell membranes after 90 mins by [35S]-GTPgammaS assay; format: functional; conditions: Cricetulus griseus
PBMC [10] = test: Antiinflammatory activity in human myelin basic protein activated PBMC isolated from multiple sclerosis patient assessed as inhibition of phosphorylated Cox-2 expression at 10 uM after 6 days by Western blot analysis; format: functional, cell-based
PBMC [11] = test: Antiinflammatory activity in human myelin basic protein activated PBMC isolated from multiple sclerosis patient assessed as inhibition of phosphorylated Akt expression at 10 uM after 6 days by Western blot analysis; format: functional, cell-based
PBMC [12] = test: Immunomodulatory activity in human myelin basic protein activated PBMC isolated from multiple sclerosis patient assessed as inhibition of CD25 expression at 10 uM after 6 days by flow cytometric analysis; format: functional, cell-based
PBMC [13] = test: Immunomodulatory activity in human myelin basic protein activated PBMC isolated from multiple sclerosis patient assessed as inhibition of CD54 expression at 10 uM after 6 days by flow cytometric analysis; format: functional, cell-based
PBMC [14] = test: Immunomodulatory activity in human myelin basic protein activated PBMC isolated from healthy human assessed as decrease in cell proliferation after 6 days by trypan blue staining-based haemocytometric analysis relative to control; format: functional
PBMC [15] = test: Antiinflammatory activity in human myelin basic protein activated PBMC isolated from healthy human assessed as inhibition of phosphorylated Cox-2 expression after 6 days by Western blot analysis; format: functional, cell-based
PBMC [16] = test: Antiinflammatory activity in human myelin basic protein activated PBMC isolated from healthy human assessed as inhibition of phosphorylated Akt expression after 6 days by Western blot analysis; format: functional, cell-based
PBMC [17] = test: Immunomodulatory activity in human myelin basic protein activated PBMC isolated from healthy human assessed as inhibition of CD25 expression after 6 days by flow cytometric analysis; format: functional, cell-based
PBMC [18] = test: Immunomodulatory activity in human myelin basic protein activated PBMC isolated from multiple sclerosis patient assessed as decrease in cell proliferation after 6 days by trypan blue staining-based haemocytometric analysis relative to control; format: functional
PBMC [19] = test: Immunomodulatory activity in human myelin basic protein activated PBMC isolated from healthy human assessed as inhibition of CD62 expression after 6 days by flow cytometric analysis; format: functional, cell-based
PBMC [20] = test: Immunomodulatory activity in human myelin basic protein activated PBMC isolated from multiple sclerosis patient assessed as inhibition of CD49d expression at 10 uM after 6 days by flow cytometric analysis; format: functional, cell-based
PBMC [21] = test: Immunomodulatory activity in human myelin basic protein activated PBMC isolated from healthy human assessed as inhibition of CD54 expression at 10 uM after 6 days by flow cytometric analysis; format: functional, cell-based
PBMC [22] = test: Immunomodulatory activity in human myelin basic protein activated PBMC isolated from healthy human assessed as inhibition of CD49d expression at 10 uM after 6 days by flow cytometric analysis; format: functional, cell-based
PBMC [23] = test: Immunomodulatory activity in human myelin basic protein activated PBMC isolated from healthy human assessed as inhibition of CD25 expression at 10 uM after 6 days by flow cytometric analysis; format: functional, cell-based
PBMC [24] = test: Immunomodulatory activity in human myelin basic protein activated PBMC isolated from multiple sclerosis patient assessed as decrease in cell proliferation at 10 uM after 6 days by trypan blue staining-based haemocytometric analysis relative to control; format: functional
Cannabinoid receptor 1 [25] = target: Cannabinoid receptor 1 (Rattus norvegicus, UniProt P20272); test: Agonist activity at CB1 receptor in rat cerebellar membranes after 90 mins by [35S]-GTPgammaS assay; format: functional, cell membranes, Cerebellum, Membrane
PBMC [26] = test: Immunomodulatory activity in human myelin basic protein activated PBMC isolated from healthy human assessed as inhibition of CD62 expression at 10 uM after 6 days by flow cytometric analysis; format: functional, cell-based
[27] = target: Cannabinoid receptor 1 (Rattus norvegicus) (UniProt P20272); test: Agonist activity at CB1 receptor in rat cerebellar membranes at 3 uM after 90 mins by [35S]-GTPgammaS assay in presence of CB1 antagonist AM251; format: functional, cell membranes; conditions: Cerebellum, Membrane
PBMC [28] = test: Antiinflammatory activity in human myelin basic protein activated PBMC isolated from healthy human assessed as inhibition of phosphorylated Akt expression at 10 uM after 6 days by Western blot analysis; format: functional, cell-based
PBMC [29] = test: Immunomodulatory activity in human myelin basic protein activated PBMC isolated from healthy human assessed as inhibition of CD69 expression at 10 uM after 6 days by flow cytometric analysis; format: functional, cell-based
LNCaP [30] = test: Cytotoxicity against human LNCAP cells expressing CB2 receptor assessed as decrease in cell viability at 5 uM after 72 hrs by neutral red uptake and accumulation assay in presence of CB2 receptor antagonist MC21 relative to control; format: functional, cell-based
PBMC [31] = test: Antiinflammatory activity in human myelin basic protein activated PBMC isolated from healthy human assessed as inhibition of phosphorylated Cox-2 expression at 10 uM after 6 days by Western blot analysis; format: functional, cell-based
[32] = target: Cannabinoid receptor 1 (Rattus norvegicus) (UniProt P20272); test: Agonist activity at CB1 receptor in rat cerebellar membranes after 90 mins by [35S]-GTPgammaS assay relative to 2-AG; format: functional, cell membranes; conditions: Cerebellum, Membrane
PBMC [33] = test: Immunomodulatory activity in human myelin basic protein activated PBMC isolated from healthy human assessed as viable cells at 10 uM after 6 days by trypan blue staining-based haemocytometric analysis; format: functional; conditions: 144 h, read-out: Activity

Cannabinoid receptor 1 (Homo sapiens, UniProt P21554), sequence (P21554 whole entry): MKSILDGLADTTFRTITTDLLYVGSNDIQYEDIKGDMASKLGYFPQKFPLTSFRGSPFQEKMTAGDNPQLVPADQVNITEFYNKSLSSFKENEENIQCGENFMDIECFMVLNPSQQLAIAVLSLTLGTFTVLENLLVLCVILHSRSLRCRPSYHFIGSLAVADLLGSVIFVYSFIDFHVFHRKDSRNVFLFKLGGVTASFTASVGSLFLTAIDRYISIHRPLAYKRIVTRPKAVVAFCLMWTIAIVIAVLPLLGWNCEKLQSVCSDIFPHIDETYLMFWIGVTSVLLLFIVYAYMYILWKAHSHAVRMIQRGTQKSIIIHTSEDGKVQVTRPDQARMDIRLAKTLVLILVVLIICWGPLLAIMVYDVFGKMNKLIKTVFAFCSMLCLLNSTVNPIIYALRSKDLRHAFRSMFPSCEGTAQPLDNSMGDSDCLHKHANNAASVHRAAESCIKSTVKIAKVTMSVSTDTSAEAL
Cannabinoid receptor 1 (Rattus norvegicus), sequence (P20272 whole entry): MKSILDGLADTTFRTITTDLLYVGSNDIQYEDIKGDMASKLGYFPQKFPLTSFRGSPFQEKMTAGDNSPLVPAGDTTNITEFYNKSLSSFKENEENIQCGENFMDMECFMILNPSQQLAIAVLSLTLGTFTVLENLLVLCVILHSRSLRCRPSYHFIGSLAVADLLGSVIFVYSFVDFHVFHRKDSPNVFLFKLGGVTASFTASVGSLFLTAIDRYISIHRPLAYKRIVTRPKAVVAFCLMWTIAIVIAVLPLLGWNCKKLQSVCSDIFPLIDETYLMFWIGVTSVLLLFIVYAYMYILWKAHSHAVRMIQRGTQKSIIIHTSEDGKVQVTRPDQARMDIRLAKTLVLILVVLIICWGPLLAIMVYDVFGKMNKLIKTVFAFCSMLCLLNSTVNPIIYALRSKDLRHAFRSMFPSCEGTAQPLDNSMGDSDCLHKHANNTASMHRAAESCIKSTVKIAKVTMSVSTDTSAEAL
T1 sequence (P34972 whole entry): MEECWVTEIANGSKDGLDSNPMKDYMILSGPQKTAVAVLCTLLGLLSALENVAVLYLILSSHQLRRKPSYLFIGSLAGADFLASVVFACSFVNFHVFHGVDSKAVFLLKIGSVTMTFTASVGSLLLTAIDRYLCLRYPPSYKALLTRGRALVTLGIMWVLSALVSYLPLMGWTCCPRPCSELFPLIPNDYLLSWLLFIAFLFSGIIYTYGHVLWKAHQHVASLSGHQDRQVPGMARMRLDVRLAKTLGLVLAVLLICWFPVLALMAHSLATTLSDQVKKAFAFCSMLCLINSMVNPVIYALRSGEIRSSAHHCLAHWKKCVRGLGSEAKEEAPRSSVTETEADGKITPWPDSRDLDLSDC
Cannabinoid receptor 1 (Rattus norvegicus, UniProt P20272), sequence (P20272 whole entry): as the sequence (P20272 whole entry) above

CC1CCC(NC(=O)c2cc3ccccc3n(Cc3ccc(F)cc3)c2=O)CC1 (configuration not stated)
Ki (Cannabinoid receptor 1 [1]): 19.4 nM | Ratio Ki (Homo sapiens): 27.7 | Ki (Cannabinoid receptor 2 [2]): 0.75 nM

CCCCCCC(C)(C)c1cc(O)c2c(c1)OC(C)(C)[C@@H]1CC=C(CO)C[C@@H]21
Emax (Cannabinoid receptor 2 [3]): 290%

CC1CCC(NC(=O)c2c(O)c3cccnc3n(CCN3CCOCC3)c2=O)CC1 (configuration not stated)
Ki (Cannabinoid receptor 1 [1]): 630 nM | Ratio Ki (Homo sapiens): 85 | Ki (Cannabinoid receptor 2 [2]): 7.44 nM

CCCC(C)(C)c1ccc2c(c1)OC(C)(C)[C@@H]1CC=C(C)C[C@@H]21
IC50 (LNCaP [4]): 11600 nM

CCCn1c(=O)c(C(=O)NC2CCC(C)CC2)cc2ccccc21 (configuration not stated)
Ki (Cannabinoid receptor 1 [1]): 2610 nM | Ratio Ki (Homo sapiens): 102 | Ki (Cannabinoid receptor 2 [2]): 25.4 nM

CCCCn1c(=O)c(C(=O)NC2CCC(C)CC2)c(O)c2cccnc21 (configuration not stated)
Ki (Cannabinoid receptor 1 [1]): 701 nM | Ratio Ki (Homo sapiens): 62 | Ki (Cannabinoid receptor 2 [2]): 11.2 nM

CC1CCC(NC(=O)c2c(O)c3cccnc3n(Cc3ccc(F)cc3)c2=O)CC1 (configuration not stated)
Activity (LNCaP [5]): inactive | Activity [6]: inactive | inhibition (PBMC [7]): Dose-dependent effect | inhibition (PBMC [8]): Dose-dependent effect | inhibition (PBMC [9]): Dose-dependent effect | Activity (CHO): inactive | inhibition (PBMC [10]): Active | inhibition (PBMC [11]): Active | inhibition (PBMC [12]): Active | Ki (Cannabinoid receptor 1 [1]): 138 nM | inhibition (PBMC [13]): Active | Activity (PBMC [14]): Dose-dependent effect | IC50 (LNCaP [4]): 2080 nM | inhibition (PBMC [15]): Dose-dependent effect | inhibition (PBMC [16]): Dose-dependent effect | inhibition (PBMC [17]): Dose-dependent effect | Ki (Cannabinoid receptor 2 [2]): 0.75 nM | Activity (PBMC [18]): Dose-dependent effect | inhibition (PBMC [19]): Dose-dependent effect | EC50 (Cannabinoid receptor 2 [3]): 3.16 nM | Emax (Cannabinoid receptor 2 [3]): 216% | inhibition (PBMC [20]): Active

CCCCCn1c(=O)c(C(=O)NC2CCC(C)CC2)cc2ccccc21 (configuration not stated)
Activity (CHO): inactive | inhibition (PBMC [21]): inactive | inhibition (PBMC [22]): inactive | inhibition (PBMC [23]): Active | Activity (PBMC [24]): Active | Ki (Cannabinoid receptor 1 [1]): 227 nM | EC50 (Cannabinoid receptor 1 [25]): 2510 nM | inhibition (PBMC [26]): inactive | Activity [27]: inactive | inhibition (PBMC [28]): Active | inhibition (PBMC [29]): Active | IC50 (LNCaP [4]): 3900 nM | Activity (LNCaP [30]): inactive | inhibition (PBMC [31]): Active | Emax [32]: 230% | Ki (Cannabinoid receptor 2 [2]): 1.5 nM | viability at 10 µM (PBMC [33]): 71.5% | EC50 (Cannabinoid receptor 2 [3]): 2 nM | Emax (Cannabinoid receptor 2 [3]): 280%

CC1CCC(NC(=O)c2cc3ccccc3n(CCN3CCOCC3)c2=O)CC1 (configuration not stated)
Ki (Cannabinoid receptor 1 [1]): 800 nM | Ratio Ki (Homo sapiens): 190 | Ki (Cannabinoid receptor 2 [2]): 4.2 nM

CC1CCC(NC(=O)c2c(O)c3cccnc3n(CCCO)c2=O)CC1 (configuration not stated)
Ki (Cannabinoid receptor 1 [1]): > 10000 nM | Ratio Ki (Homo sapiens): > 4.6 | Ki (Cannabinoid receptor 2 [2]): 215 nM

CC1CCC(NC(=O)c2cc3ccccc3n(CCCO)c2=O)CC1 (configuration not stated)
Ki (Cannabinoid receptor 1 [1]): 3760 nM | Ratio Ki (Homo sapiens): 104 | Ki (Cannabinoid receptor 2 [2]): 36 nM

CCCCn1c(=O)c(C(=O)NC2CCC(C)CC2)cc2ccccc21 (configuration not stated)
Ki (Cannabinoid receptor 1 [1]): 551 nM | Ratio Ki (Homo sapiens): 28 | Ki (Cannabinoid receptor 2 [2]): 19.8 nM

Source: ChEMBL document CHEMBL3421611, “New quinolone- and 1,8-naphthyridine-3-carboxamides as selective CB2 receptor agonists with anticancer and immuno-modulatory activity” (Eur J Med Chem, 2015)
